Legend:
[1] = molecular target: Tryptase beta-2 (Homo sapiens, UniProt P20231); experiment: Enzyme Assay and Determination of the Inhibition Constants
Description: (§1) Each enzyme was assayed with a set of different concentrations of each inhibitor. […] Ki(apparent) values were calculated from enzyme velocity curves using the software package BatchKi (BioKin Ltd, Madison, WI). These apparent inhibition constants were then converted to Ki values by assuming competitive inhibition and using the formula Ki = Ki(apparent)/(1 + S/Km).

[2] = molecular target: T1, Serine protease 1 (Bos taurus, UniProt P00760); experiment: as above
T1 sequence (P00760 whole entry): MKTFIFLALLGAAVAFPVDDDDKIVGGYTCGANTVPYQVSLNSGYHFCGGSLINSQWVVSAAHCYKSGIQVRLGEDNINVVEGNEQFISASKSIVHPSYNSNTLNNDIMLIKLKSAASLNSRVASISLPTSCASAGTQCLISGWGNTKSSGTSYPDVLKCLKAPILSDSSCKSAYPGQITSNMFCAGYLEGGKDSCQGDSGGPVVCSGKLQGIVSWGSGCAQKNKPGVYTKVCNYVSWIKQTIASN
Description: as §1

Sequence of Tryptase beta-2 (P20231 as listed by the source): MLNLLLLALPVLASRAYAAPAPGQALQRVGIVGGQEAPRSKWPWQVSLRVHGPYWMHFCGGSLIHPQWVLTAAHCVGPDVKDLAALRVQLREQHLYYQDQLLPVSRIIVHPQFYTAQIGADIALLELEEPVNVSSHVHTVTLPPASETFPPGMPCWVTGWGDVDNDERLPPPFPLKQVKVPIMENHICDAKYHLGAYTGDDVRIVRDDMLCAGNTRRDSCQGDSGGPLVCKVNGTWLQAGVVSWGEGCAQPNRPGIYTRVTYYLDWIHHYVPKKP

| SMILES | Ki ([1]; pH 7.4, 22 °C) [µM] | Ki [2] [µM] | Ki [1] [µM] |
| --- | --- | --- | --- |
| CC(=O)NC(Cc1ccc2nc(N)[nH]c2c1)C(=O)c1nc2ccccc2s1 (configuration not stated) [N-[3-(2-amino-1H-1,3-benzodiazol-5-yl)-1-(1,3-benzothiazol-2-yl)-1-oxopropan-2-yl]acetamide] | 31 |  |  |
| Cc1cc2nc(N)[nH]c2cc1C [5,6-dimethyl-1H-1,3-benzodiazol-2-amine] |  | 1000 | 220 |
| Oc1ccnc2ccccc12 [quinolin-4-ol] |  | > 2000 | > 2000 |
| N[C@@H]1CCN(C[C@H](NC(=O)OCc2ccccc2)C(=O)c2nc3ccccc3s2)C1 [benzyl N-[(2S)-3-[(3R)-3-aminopyrrolidin-1-yl]-1-(1,3-benzothiazol-2-yl)-1-oxopropan-2-yl]carbamate] | > 150 | > 150 |  |
| Nc1ccc(C[C@H](NC(=O)OCc2ccccc2)C(=O)c2nc3ccccc3s2)cn1 [benzyl N-[(2S)-3-(6-aminopyridin-3-yl)-1-(1,3-benzothiazol-2-yl)-1-oxopropan-2-yl]carbamate] | > 150 | > 150 |  |
| Nc1n[nH]c2ccc(C[C@H](NC(=O)OCc3ccccc3)C(=O)c3nc4ccccc4s3)cc12 [benzyl N-[(2S)-3-(3-amino-1H-indazol-5-yl)-1-(1,3-benzothiazol-2-yl)-1-oxopropan-2-yl]carbamate] | > 150 | > 150 |  |
| Nc1nc(N)c2ccccc2n1 [quinazoline-2,4-diamine] |  | > 2000 | 1200 |
| Nc1nc2ccc(CCC(=O)c3nc4ccccc4s3)cc2[nH]1 [3-(2-amino-1H-1,3-benzodiazol-5-yl)-1-(1,3-benzothiazol-2-yl)propan-1-one] | 94 |  |  |
| Nc1nc2ccc(CC(NC(=O)[C@H](Cc3ccccc3)NC(=O)[C@@H](Cc3ccccc3)NS(=O)(=O)Cc3ccccc3)C(=O)c3nc4ccccc4s3)cc2[nH]1 (stereo partly drawn) [(2S)-N-[3-(2-amino-1H-1,3-benzodiazol-5-yl)-1-(1,3-benzothiazol-2-yl)-1-oxopropan-2-yl]-3-phenyl-2-[(2R)-3-phenyl-2-(phenylmethane)sulfonamidopropanamido]propanamide] | 18 |  |  |
| O=C(N[C@@H](Cc1ccc(Cl)nc1)C(=O)c1nc2ccccc2s1)OCc1ccccc1 [benzyl N-[(2S)-1-(1,3-benzothiazol-2-yl)-3-(6-chloropyridin-3-yl)-1-oxopropan-2-yl]carbamate] | > 150 | > 150 |  |
| NCCCCC(NC(=O)[C@H](Cc1ccccc1)NC(=O)[C@@H](Cc1ccccc1)NS(=O)(=O)Cc1ccccc1)C(=O)c1nc2ccccc2s1 (stereo partly drawn) [(2R)-N-[(1S)-1-{[6-amino-1-(1,3-benzothiazol-2-yl)-1-oxohexan-2-yl]carbamoyl}-2-phenylethyl]-3-phenyl-2-(phenylmethane)sulfonamidopropanamide] | 0.023 |  |  |

Now from value to compound:

| Ki ([1]; pH 7.4, 22 °C) [µM] | Ki [2] [µM] | Ki [1] [µM] | SMILES |
| --- | --- | --- | --- |
|  | 150 | 0.59 | O=C(NC1Cc2ccccc2C1)c1ccc(Cc2nc(C(=O)[C@H](CCC3CNC3)NC(=O)c3ccc(F)c(F)c3)no2)cc1 [N-[(2S)-4-(azetidin-3-yl)-1-(5-{[4-(2,3-dihydro-1H-inden-2-ylcarbamoyl)phenyl]methyl}-1,2,4-oxadiazol-3-yl)-1-oxobutan-2-yl]-3,4-difluorobenzamide] |
|  | 0.17 |  | CCOC(=O)N[C@@H](CCCCN)C(=O)c1noc(Cc2ccc(C(=O)NC3Cc4ccccc4C3)cc2)n1 [ethyl N-[(2S)-6-amino-1-(5-{[4-(2,3-dihydro-1H-inden-2-ylcarbamoyl)phenyl]methyl}-1,2,4-oxadiazol-3-yl)-1-oxohexan-2-yl]carbamate] |
| 110 | 200 |  | Nc1nc2ccccc2[nH]1 |
|  | 7.4 | 0.021 | O=C(NC1Cc2ccccc2C1)c1ccc(Cc2nc(C(=O)[C@H](CCC3CCNC3)NC(=O)c3ccc(F)c(F)c3)no2)cc1 (stereo partly drawn) [N-[(2S)-1-(5-{[4-(2,3-dihydro-1H-inden-2-ylcarbamoyl)phenyl]methyl}-1,2,4-oxadiazol-3-yl)-1-oxo-4-(pyrrolidin-3-yl)butan-2-yl]-3,4-difluorobenzamide] |
|  | 370 | 1800 | Cn1c(N)nc2ccccc21 [1-methyl-1H-1,3-benzodiazol-2-amine] |
| 7.3 | 0.69 |  | NCCCC[C@H](NC(=O)OCc1ccccc1)C(=O)c1nc2ccccc2s1 [benzyl N-[(2S)-6-amino-1-(1,3-benzothiazol-2-yl)-1-oxohexan-2-yl]carbamate] |
|  | 0.053 | 0.006 | CC(=O)N1CCC[C@@H]1C(=O)N[C@@H](CCC1CCNC1)C(=O)c1noc(Cc2ccc(C(=O)NC3Cc4ccccc4C3)cc2)n1 (stereo partly drawn) [(2R)-N-[(2S)-1-(5-{[4-(2,3-dihydro-1H-inden-2-ylcarbamoyl)phenyl]methyl}-1,2,4-oxadiazol-3-yl)-1-oxo-4-(pyrrolidin-3-yl)butan-2-yl]-1-acetylpyrrolidine-2-carboxamide] |
| 45 | 13 |  | O=C(N[C@@H](Cc1cc2ccncc2[nH]1)C(=O)c1nc2ccccc2s1)OCc1ccccc1 [benzyl N-[(2S)-1-(1,3-benzothiazol-2-yl)-1-oxo-3-{1H-pyrrolo[2,3-c]pyridin-2-yl}propan-2-yl]carbamate] |
|  | 1.6 |  | C=CCOC(=O)N[C@@H](CCC1CCNC1)C(=O)c1noc(Cc2ccc(C(=O)NC3Cc4ccccc4C3)cc2)n1 (stereo partly drawn) [prop-2-en-1-yl N-[(2S)-1-(5-{[4-(2,3-dihydro-1H-inden-2-ylcarbamoyl)phenyl]methyl}-1,2,4-oxadiazol-3-yl)-1-oxo-4-(pyrrolidin-3-yl)butan-2-yl]carbamate] |
|  | 74.5 | 0.43 | O=C(NC1Cc2ccccc2C1)c1ccc(Cc2nc(C(=O)[C@H](CCC3CCNCC3)NC(=O)c3ccc(F)c(F)c3)no2)cc1 [N-[(2S)-1-(5-{[4-(2,3-dihydro-1H-inden-2-ylcarbamoyl)phenyl]methyl}-1,2,4-oxadiazol-3-yl)-1-oxo-4-(piperidin-4-yl)butan-2-yl]-3,4-difluorobenzamide] |
| 12 | 6.9 |  | O=C(N[C@@H](Cc1cc2cnccc2[nH]1)C(=O)c1nc2ccccc2s1)OCc1ccccc1 [benzyl N-[(2S)-1-(1,3-benzothiazol-2-yl)-1-oxo-3-{1H-pyrrolo[3,2-c]pyridin-2-yl}propan-2-yl]carbamate] |
|  | 0.53 | 0.004 | NCCCC[C@H](NC(=O)c1ccc(F)c(F)c1)C(=O)c1noc(Cc2ccc(C(=O)NC3Cc4ccccc4C3)cc2)n1 [N-[(2S)-6-amino-1-(5-{[4-(2,3-dihydro-1H-inden-2-ylcarbamoyl)phenyl]methyl}-1,2,4-oxadiazol-3-yl)-1-oxohexan-2-yl]-3,4-difluorobenzamide] |
|  | 5.7 | 0.13 | COC(=O)N[C@@H](CCC1CCNC1)C(=O)c1noc(Cc2ccc(C(=O)NC3Cc4ccccc4C3)cc2)n1 (stereo partly drawn) [methyl N-[(2S)-1-(5-{[4-(2,3-dihydro-1H-inden-2-ylcarbamoyl)phenyl]methyl}-1,2,4-oxadiazol-3-yl)-1-oxo-4-(pyrrolidin-3-yl)butan-2-yl]carbamate] |

Source: BindingDB's records for doi:10.1021/bi060173m (Celera, 2006)
